Test results reported in publication PMC5336524 (Drug testing and analysis, 2016).
Like-named read-outs stand apart in the source and are kept apart here.

Tests used:
5-HT transporters (SERT) = 5-HT transporters (SERT) (Rattus norvegicus, UniProt P31652); test: [3H]5-HT release via SERT from rat brain synaptosomes; format: biochemical
[1] = target: T1, dopamine transporters (DAT) (Rattus norvegicus, UniProt P23977); test: [3H]dopamine uptake inhibition in rat brain synaptosomes; format: biochemical; conditions: 5 nM [3H]dopamine, mean ± SD, n = 3, inactive = no inhibition at 10,000 nM; for IC50: [3H]DA uptake via DAT IC50, rat brain synaptosomes
T1 sequence (P23977 whole entry): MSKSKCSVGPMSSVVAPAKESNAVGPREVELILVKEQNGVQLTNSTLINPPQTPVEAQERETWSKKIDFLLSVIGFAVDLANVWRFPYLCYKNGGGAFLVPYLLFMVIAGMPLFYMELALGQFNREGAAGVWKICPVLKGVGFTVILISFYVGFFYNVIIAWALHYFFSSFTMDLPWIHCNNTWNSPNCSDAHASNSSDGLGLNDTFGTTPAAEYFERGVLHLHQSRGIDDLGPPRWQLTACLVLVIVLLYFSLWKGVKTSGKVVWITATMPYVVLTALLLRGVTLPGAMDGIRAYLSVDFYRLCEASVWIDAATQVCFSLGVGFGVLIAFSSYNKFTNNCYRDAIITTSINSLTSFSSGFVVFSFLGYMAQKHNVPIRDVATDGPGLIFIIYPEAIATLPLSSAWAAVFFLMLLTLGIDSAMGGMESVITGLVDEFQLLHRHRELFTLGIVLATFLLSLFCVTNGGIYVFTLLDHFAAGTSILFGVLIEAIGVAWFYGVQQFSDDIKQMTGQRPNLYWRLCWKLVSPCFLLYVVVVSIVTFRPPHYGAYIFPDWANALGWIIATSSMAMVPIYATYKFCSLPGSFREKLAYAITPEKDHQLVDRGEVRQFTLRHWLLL

[2] = target: T1, dopamine transporters (DAT); test: [3H]MPP+ release via DAT from rat brain synaptosomes; format: biochemical; conditions: for [3H]MPP+ release via DAT EC50: rat brain synaptosomes, 9 nM [3H]MPP+, mean ± SD, n = 3, inactive = efficacy less than 33% of maximal release
[3] = target: T2, norepinephrine transporters (NET) (Rattus norvegicus, UniProt Q63380); test: [3H]MPP+ release via NET from rat brain synaptosomes; format: biochemical; conditions: for [3H]MPP+ release via NET EC50: rat brain synaptosomes, 9 nM [3H]MPP+, mean ± SD, n = 3, inactive = efficacy less than 33% of maximal release
T2 sequence (Q63380 1-617): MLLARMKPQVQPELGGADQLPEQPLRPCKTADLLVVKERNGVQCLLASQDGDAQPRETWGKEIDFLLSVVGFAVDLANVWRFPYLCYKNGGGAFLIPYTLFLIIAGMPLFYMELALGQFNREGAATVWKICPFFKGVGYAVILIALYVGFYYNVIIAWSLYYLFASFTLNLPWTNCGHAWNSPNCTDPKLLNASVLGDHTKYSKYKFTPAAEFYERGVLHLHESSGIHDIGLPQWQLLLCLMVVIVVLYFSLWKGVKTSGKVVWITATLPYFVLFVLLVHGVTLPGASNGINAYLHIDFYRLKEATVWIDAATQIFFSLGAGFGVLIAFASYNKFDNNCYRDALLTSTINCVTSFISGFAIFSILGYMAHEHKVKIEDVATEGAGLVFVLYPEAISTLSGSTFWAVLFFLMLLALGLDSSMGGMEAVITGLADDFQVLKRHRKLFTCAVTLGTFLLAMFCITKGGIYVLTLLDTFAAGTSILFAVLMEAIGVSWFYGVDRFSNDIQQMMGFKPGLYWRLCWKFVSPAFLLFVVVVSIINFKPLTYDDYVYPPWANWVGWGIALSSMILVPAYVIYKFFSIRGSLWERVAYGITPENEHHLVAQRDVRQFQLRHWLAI

[4] = target: T2, norepinephrine transporters (NET); test: [3H]norepinephrine uptake inhibition in rat brain synaptosomes; format: biochemical
[5] = target: serotonin transporters (SERT) (Rattus norvegicus, UniProt P31652); test: [3H]serotonin uptake inhibition in rat brain synaptosomes; format: biochemical
Chain of serotonin transporters (SERT) (P31652 whole entry): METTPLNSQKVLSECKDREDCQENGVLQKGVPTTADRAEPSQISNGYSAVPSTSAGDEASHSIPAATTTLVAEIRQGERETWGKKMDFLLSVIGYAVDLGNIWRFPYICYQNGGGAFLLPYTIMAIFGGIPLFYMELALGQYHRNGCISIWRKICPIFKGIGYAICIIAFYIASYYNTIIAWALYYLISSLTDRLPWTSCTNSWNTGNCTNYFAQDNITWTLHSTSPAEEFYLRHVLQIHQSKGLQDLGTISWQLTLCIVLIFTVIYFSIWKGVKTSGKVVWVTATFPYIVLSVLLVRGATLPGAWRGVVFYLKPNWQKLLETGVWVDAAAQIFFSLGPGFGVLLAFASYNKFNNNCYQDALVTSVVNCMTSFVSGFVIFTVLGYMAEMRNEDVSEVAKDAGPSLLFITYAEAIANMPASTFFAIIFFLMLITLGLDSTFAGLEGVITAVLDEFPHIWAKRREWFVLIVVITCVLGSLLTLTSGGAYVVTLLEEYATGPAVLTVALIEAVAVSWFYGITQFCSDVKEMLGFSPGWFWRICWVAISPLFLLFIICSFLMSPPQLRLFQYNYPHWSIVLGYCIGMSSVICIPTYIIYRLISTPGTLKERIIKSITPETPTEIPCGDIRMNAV

[6] = Stability of N-methoxymephedrone; format: physicochemical; conditions: solid; over time converts from a colourless solid to a brown solid; hygroscopic
[7] = [3H]5-HT release via SERT EC50, rat brain synaptosomes, 5 nM [3H]5-HT, mean ± SD, n = 3, inactive = efficacy less than 33% of maximal release
[8] = ratio of uptake IC50 values versus mexedrone

Chain of 5-HT transporters (SERT) (P31652 whole entry): as above

## CNC(C)C(=O)c1ccc(C)cc1 (stereo not shown) [Mephedrone, 2-(methylamino)-1-(4-methylphenyl)propan-1-one, reference compound]
5-HT transporters (SERT); [7]
  EC50: 163 ± 30 nM
[1]
  IC50: 1060 ± 85 nM
[2]
  EC50: 45 ± 6 nM
[3]
  EC50: 58 ± 7 nM
[4]
  IC50: 494 ± 93 nM
[5]
  IC50: 470 ± 7.6 nM

## CNC(CCl)C(=O)c1ccc(C)cc1 (stereo not drawn) [α-Chloromethylmephedrone, 3-chloro-2-(methylamino)-1-(4-methylphenyl)propan-1-one]
5-HT transporters (SERT); rat brain synaptosomes, 5 nM [3H]5-HT, mean ± SD, n = 3, inactive = efficacy less than 33% of maximal release
  [3H]5-HT release via SERT EC50: inactive
[1]; rat brain synaptosomes
  [3H]DA uptake via DAT IC50: inactive
[2]
  [3H]MPP+ release via DAT EC50: inactive
[3]
  [3H]MPP+ release via NET EC50: inactive
[4]; rat brain synaptosomes, 10 nM [3H]norepinephrine, mean ± SD, n = 3, inactive = no inhibition at 10,000 nM
  [3H]NE uptake via NET IC50: inactive
[5]; rat brain synaptosomes, 5 nM [3H]serotonin, mean ± SD, n = 3, inactive = no inhibition at 10,000 nM
  [3H]5-HT uptake via SERT IC50: inactive

## CON(C)C(C)C(=O)c1ccc(C)cc1 (stereo not shown) [N-Methoxymephedrone, 2-(Methoxy(methyl)amino)-1-(4-methylphenyl)propan-1-one]
5-HT transporters (SERT)
  EC50: 1040 ± 271 nM
[1]
  IC50: 6090 ± 1620 nM
[2]
  EC50: 666 ± 132 nM
[6]
  stability in crystalline form: unstable
[3]
  EC50: 313 ± 51 nM
[4]
  IC50: 3460 ± 728 nM
[4]; [8]
  fold more potent than mexedrone at NET (uptake inhibition): 2.6 fold
[5]
  IC50: 3330 ± 1130 nM
[5]; [8]
  fold more potent than mexedrone at SERT (uptake inhibition): 1.6 fold

## CNC(COC)C(=O)c1ccc(C)cc1 (stereo not shown) [Mexedrone, 3-Methoxy-2-(methylamino)-1-(4-methylphenyl)propan-1-one]
5-HT transporters (SERT); [7]
  EC50: 2520 ± 560 nM
5-HT transporters (SERT); releasing activity at SERT EC50, rat brain synaptosomes
  EC50: 2500 nM
[1]
  IC50: 6840 ± 1520 nM
[2]
  [3H]MPP+ release via DAT EC50: inactive
[3]
  [3H]MPP+ release via NET EC50: inactive
[4]
  IC50: 8870 ± 3100 nM
[5]
  IC50: 5290 ± 1620 nM
